Test results as given in patent US3951979A, “New amino propanediol derivatives” (priority 1972, dated 1976).
Like-named read-outs stand apart in the source and are kept apart here.

Assays:
[1] = Acute toxicity, LD50, oral administration; details: in vivo, mouse
Method: 1. Acute toxicity -- LD50 -- Oral administration
This was determined upon the mouse by oral administration, the LD50 value being calculated by the method of B. Behrens & C. Karber (Arch F. Exp. Patho. Pharm., volume 177, page 379 (1935) )

[2] = test system: mebubarbital-induced sleep; assay: Potentiation of an inactive dose of a barbiturate (mebubarbital); assay type: in vivo; details: for ED50: 0.25 h, read-out: Barbiturates (potentiation), ED50
rat = assay: Cataleptic effect, homolateral crossed paws method; assay type: in vivo; design: Catalepsy: unit not given here; details: for Catalepsy / Catalepsy, result at stated dose: I.P.; for Cataleptic effect (in words): in vivo
cerebral dopamine = assay: Biochemical dopamine effect on the brain (spectrofluorometric); assay type: in vivo, mouse (strain OF1); details: mouse; for Cerebral dopamine / Cerebral dopamine (result in words): I.P.; for Cerebral dopamine (result in words): dose not given
Method: 7. Biochemical dopamine effect on the brain This effect is measured by spectrofluorometric means using the Jobin-Yvon Bearn apparatus, on the brains of mice of the strain OF1.

apomorphine = assay: Anti-apomorphic effect in the rat; assay type: in vivo; design: Anti-apomorphine: unit not given here; details: for Anti-apomorphine: apomorphine 0.6 mg/kg; for Activity in apomorphine stereotypes (in words): in vivo
coughing spasms = assay: Antitussive effect: inhibition of coughing spasms induced by stimulating a laryngeal nerve; assay type: in vivo, cat; details: for Activity of the product (antitussive) / Duration of activity (antitussive): cat; for Dose of pentoxyverine necessary for comparable antitussive effect, relative to compound: versus pentoxyverine
Description: Finally, the compounds of the invention having shown themselves to be powerful antitussive agents, the results of comparative tests for this activity on four compounds of the invention and on pentoxyverine, one of the most powerful antitussive agents at present known, are given below in Table V.
The technique used was the method of R. Domenjoz, Arch. Exp. Pathol. V. Pharmacol. Volume 215, page 19 (1952)
The cat is anaesthetized with ether and tracheotomised.
Coughing spasms are induced by stimulating a laryngeal nerve. After the product to be tested has been administered, fresh stimulation enables the inhibition achieved and its duration to be assessed.

[3] = test system: carotid arterial blood-pressure; assay: Effect on carotid arterial blood-pressure of the dog anaesthetised with chloralose; assay type: in vivo; details: for Hypotensive effect (in words): in vivo
Method: EFFECT ON ARTERIAL BLOOD-PRESSURE This was measured on the dog anaesthetised with chloralose by recording both the extent of, and the duration of, the effect on carotid arterial blood-pressure.

[4] = test system: apomorphine-induced vomiting; assay: Anti-emetic effect: apomorphine-induced attempted vomits in beagle dogs; assay type: in vivo; details: dog
Method: The anti-emetic effect, which may constitute a contributory factor to the main effect, was also systematically tested in accordance with the following procedure:
Dogs of the beagle breed were split up at random into groups of 3 animals. After fasting for 24 hours, the animals were given an empty capsule then, one hour later, received a sub-cutaneous injection of apomorphine hydrochloride (0.3 mg/kg). The number of attempted vomits during 45 minutes was then counted.
After 15 days rest, the same animals were given a capsule identical to that given on the first occasion but containing the product to be tested. The injection of apomorphine was carried out under the same conditions as for the control experiment.

central nervous system = assay: Effect on the central nervous system, overall psycholeptic/neuroleptic spectrum; details: in vivo
Description: EFFECT ON THE CENTRAL NERVOUS SYSTEM
This effect was observed by means of a set of tests of which the most significant are summarised below: […]

[5] = Canis lupus familiaris, 1.25 mg/kg intravenous
[6] = oral administration, sleep in 50% of animals 15 minutes after product

O=C(CCCN1CCC(O)(c2ccc(Cl)cc2)CC1)c1ccc(F)cc1 [Haloperidol, haloperidol, reference compound]
LD50 [1]: 125 mg/kg
ED50 ([2]; po): 12 mg/kg
Catalepsy (rat): 1
Cerebral dopamine (cerebral dopamine; at 10 mg/kg): -30%
Anti-apomorphine (apomorphine; subcutaneous): 0.5

C#CC1(OCC(O)CN2CCN(CC(OC)c3ccccc3)CC2)CCCCC1 (stereo not shown) [compound 21]
Activity of the product (antitussive) (coughing spasms; 10 mg/kg body weight): 54%
Duration of activity (antitussive) (coughing spasms; 10 mg/kg body weight): 20 min

C#CC(C)(C)OCC(O)CN1CCN(c2ccccc2)CC1 (stereo not shown) [Compound No. 1]
Duration of activity (blood-pressure) ([3]; 1.25 mg/kg intravenous): ≥ 35 min
change in vivo at 1.25 mg/kg [3, 5]: -20.3%

C#CC1(OCC(O)CN2CCN(c3cccc(C(F)(F)F)c3)CC2)CCCCC1 (stereo not shown) [Compound No. 11]
LD50 [1]: 783 mg/kg
ED50 [2, 6]: 90 mg/kg
Catalepsy, result at stated dose (rat; at 40): Inactive
Cataleptic effect (in words) (rat): slightly cataleptic
Cerebral dopamine (result in words) (cerebral dopamine): Inactive
Anti-apomorphine (apomorphine; O.A.): 15
Activity in apomorphine stereotypes (in words) (apomorphine): extremely active in apomorphine stereotypes
Duration of activity (blood-pressure) ([3]; 1.25 mg/kg intravenous): 30 min
change in vivo at 1.25 mg/kg [3, 5]: -15%
Hypotensive effect (in words) [3]: slightly hypotensive
Reduction in attempted vomits ([4]; 10 mg/kg oral): 75%
Sedative effect (in words) (central nervous system): fairly sedative

C#CC1(OCC(O)CN2CCN(c3ccc(Cl)cc3)CC2)CCCCC1 (stereo not shown) [compound 8]
LD50 [1]: > 600 mg/kg
ED50 [2, 6]: 50 mg/kg
Catalepsy (rat): 30
Cerebral dopamine (cerebral dopamine; at 80 mg/kg): -78%
Reduction in attempted vomits ([4]; 5 mg/kg oral): 76%

C#CC1(OCC(O)CN2CCN(c3ccc(F)cc3)CC2)CCCCC1 (stereo not shown) [Compound No. 4, 1-3-(1-ethynyl)cyclohexyloxy-2-hydroxy propyl-4-(4-fluorophenyl)piperazine]
LD50 [1]: 800 mg/kg
ED50 [2, 6]: 20 mg/kg
Catalepsy (rat): 20
Cerebral dopamine (cerebral dopamine; at 10 mg/kg): -50%
Depletion of cerebral mono-amines (in words) (cerebral dopamine; in vivo): depletion of cerebral mono-amines in a manner reminiscent of reserpine
Anti-apomorphine (apomorphine; O.A.): 92
Duration of activity (blood-pressure) ([3]; 5 mg/kg intravenous): 20 min
change in vivo at 5 mg/kg ([3]; Canis lupus familiaris, 5 mg/kg intravenous): -50%
Reduction in attempted vomits ([4]; 1 mg/kg subcutaneous): 74%
Neuroleptic/psycholeptic activity (in words) (central nervous system): fairly full spectrum characteristic of neuroleptic activity

C#CC1(OCC(O)CN2CCN(c3ccccc3OC)CC2)CCCCC1 (stereo not shown) [Compound No. 20, 1-3-(1-ethynyl)cyclohexyloxy-2-hydroxy-propyl-4-(2-methoxy)phenylpiperazine]
LD50 [1]: 60 mg/kg
Barbiturates (potentiation), ED50 [2, 6]: Inactive
Catalepsy, result at stated dose (rat; at 20): Inactive
Cataleptic effect (in words) (rat): non-inducive of catalepsy
Cerebral dopamine (result in words) (cerebral dopamine): Inactive
Anti-apomorphine (apomorphine; I.P.): 5
Activity in apomorphine stereotypes (in words) (apomorphine): active in apomorphine stereotypes
Duration of activity (blood-pressure) ([3]; 1.25 mg/kg intravenous): ≥ 70 min
change in vivo at 1.25 mg/kg [3, 5]: -35.6%
Hypotensive effect (in words) [3]: especially hypotensive
Reduction in attempted vomits ([4]; 1 mg/kg oral): 100%
Reduction in attempted vomits ([4]; 1 mg/kg subcutaneous): 100%
Inhibition of the emetic effect of apomorphine compared with metoclopramide ([4]; oral administration): superior to that of metoclopramide
Inhibition of the emetic effect of apomorphine compared with metoclopramide ([4]; subcutaneous injection): equal to that of metoclopramide
Sedative effect (in words) (central nervous system): non-sedative

C#CC1(OCC(O)CN2CCN(CC(OCC)c3ccccc3)CC2)CCCCC1 (stereo not shown) [compound 22]
Activity of the product (antitussive) (coughing spasms; 10 mg/kg body weight): 75%
Duration of activity (antitussive) (coughing spasms; 10 mg/kg body weight): 50 min
Dose of pentoxyverine necessary for comparable antitussive effect, relative to compound (coughing spasms): five times greater

C#CC(C)(C)OCC(O)CN1CCN(CC(OC)c2ccccc2)CC1 (stereo not shown) [compound 23]
Activity of the product (antitussive) (coughing spasms; 10 mg/kg body weight): 31%
Duration of activity (antitussive) (coughing spasms; 10 mg/kg body weight): 25 min

C#CC(C)(CC)OCC(O)CN1CCN(c2ccccc2OC)CC1 (stereo not shown) [compound 18]
LD50 [1]: > 200 mg/kg
ED50 [2, 6]: > 25 mg/kg
Catalepsy, result at stated dose (rat; at 40): Inactive
Cataleptic effect (in words) (rat): non-inducive of catalepsy
Cerebral dopamine (cerebral dopamine; at 20 mg/kg): -24%
Activity in apomorphine stereotypes (in words) (apomorphine): active in apomorphine stereotypes
Anti-apomorphine (apomorphine; subcutaneous): 10
Sedative effect (in words) (central nervous system): non-sedative

C#CC(C)(CC)OCC(O)CN1CCN(c2ccccc2)CC1 (stereo not shown) [Compound No. 3]
LD50 [1]: > 600 mg/kg
ED50 [2, 6]: > 100 mg/kg
Catalepsy, result at stated dose (rat; at 40): Inactive
Cerebral dopamine (cerebral dopamine; at 60 mg/kg): -45%
Duration of activity (blood-pressure) ([3]; 1.25 mg/kg intravenous): 35 min
change in vivo at 1.25 mg/kg [3, 5]: -21.5%
Hypotensive effect (in words) [3]: markedly hypotensive
Neuroleptic/psycholeptic activity (in words) (central nervous system): only slightly neuroleptic

C#CC(C)(CC)OCC(O)CN1CCN(c2ccc(F)cc2)CC1 (stereo not shown) [compound 9]
LD50 [1]: > 600 mg/kg
ED50 [2, 6]: > 100 mg/kg
Catalepsy (rat): 60
Cerebral dopamine (cerebral dopamine; at 60 mg/kg): -50%
Duration of activity (blood-pressure) ([3]; 1.25 mg/kg intravenous): 20 min
change in vivo at 1.25 mg/kg [3, 5]: -27%

C#CC1(OCC(O)CN2CCN(c3ccccc3)CC2)CCCCC1 (stereo not shown) [Compound No. 2]
LD50 [1]: > 600 mg/kg
ED50 [2, 6]: 100 mg/kg
Catalepsy (rat): 50
Cerebral dopamine (cerebral dopamine; at 40 mg/kg): -33%
Anti-apomorphine (apomorphine; subcutaneous): 50

C#CC(C)(CC)OCC(O)CN1CCN(CC(OCC)c2ccccc2)CC1 (stereo not shown) [Compound No. 25, 1-3-(1-methyl-1-ethynyl)propoxy-2-hydroxy propyl-4-(2-ethoxy-2-phenyl)ethylpiperazine]
Activity of the product (antitussive) (coughing spasms; 5 mg/kg body weight): 41%
Duration of activity (antitussive) (coughing spasms; 5 mg/kg body weight): > 35 min
Activity of the product (antitussive) (coughing spasms; 7.5 mg/kg body weight): 49%
Duration of activity (antitussive) (coughing spasms; 7.5 mg/kg body weight): 62 min
Activity of the product (antitussive) (coughing spasms; 10 mg/kg body weight): 71%
Duration of activity (antitussive) (coughing spasms; 10 mg/kg body weight): 80 min
Dose of pentoxyverine necessary for comparable antitussive effect, relative to compound (coughing spasms): five times greater

CCN(CC)CCNC(=O)c1cc(Cl)c(N)cc1OC [Metoclopramide, metoclopramide, reference compound]
Reduction in attempted vomits ([4]; 1 mg/kg subcutaneous): 100%
Reduction in attempted vomits ([4]; 1.5 mg/kg oral): 100%

C[C@](N)(Cc1ccc(O)c(O)c1)C(=O)O [αmethyldopa, reference compound]
Duration of activity (blood-pressure) ([3]; 1.25 mg/kg intravenous): 95 min
change in vivo at 1.25 mg/kg [3, 5]: -8.7%

C#CC(C)(C)OCC(O)CN1CCN(c2ccc(F)cc2)CC1 (stereo not shown) [compound 5]
Duration of activity (blood-pressure) ([3]; 1.25 mg/kg intravenous): ≥ 35 min
change in vivo at 1.25 mg/kg [3, 5]: -19.5%

CCN(CC)CCOCCOC(=O)C1(c2ccccc2)CCCC1 [Pentoxyverine, pentoxyverine, reference compound]
Activity of the product (antitussive) (coughing spasms; 10 mg/kg body weight): 45%
Duration of activity (antitussive) (coughing spasms; 10 mg/kg body weight): 30 min
Activity of the product (antitussive) (coughing spasms; 50 mg/kg body weight): 71%
Duration of activity (antitussive) (coughing spasms; 50 mg/kg body weight): 110 min
